For 14 compounds, TGI and GI50 results are on record in PubChem BioAssay (NCI).

Test in all cases: DTP human tumour cell line panel, 48 h
Test [1] has as its system K-562 leukemia.
For test [2], the system named is CAKI-1 renal.
Test [3] concerns DU-145 prostate.
Test [4] has as its system MCF7 breast.
For test [5], the system named is PC-3 prostate.
Test [6] relates to SK-MEL-5 melanoma.
The subject of test [7] is NCI-H226 lung.
In test [8] the test system is SF-539 CNS.
Test [9] concerns RPMI-8226 leukemia.

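Step 1: Grow cells in 96-well plates. Step 2: Expose to compound for 48 hours at 5 concentrations. Step 3: Interpolate endpoints linearly; if unreached, use highest concentration. Here, GI50 denotes the concentration required for 50% inhibition of growth. At the TGI there is no net growth.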

As usually defined, the TGI is the concentration at which net growth stops. Regarding `Cc1ccc(/C=C2\N=C(N3CCCC(CO)C3)NC2=O)cc1` (configuration not stated), the TGI in test [1], in [2], in test [3], in [4], in test [5] and in test [6] was greater than 100 µM in each case. The TGI in test [7], in test [8] and in test [9] was greater than 100 µM in each case.

As for `CN(C)CCCNC(=O)c1cn2c(ccc3sc4ccccc4c(=O)c32)n1`, the TGI in test [2] was found to be 14.8 µM; in test [3], 25 µM; in test [4] it was 8.48 µM; in test [5] it was 9.43 µM; in test [6] it was 3.34 µM; in test [7] it was 36.1 µM. Also, the TGI came to 33.1 µM in test [8] and 5.36 µM in [9].

On to `Cc1ccc2c(c1C)C(=O)/C(=C/c1cccc(C)c1C(=O)O)C2`, for which the TGI is greater than 100 µM in [1]; greater than 100 µM in test [2]; greater than 100 µM in [3]; greater than 65.2 µM in [4]; greater than 100 µM in [5]; greater than 100 µM in test [6]. Besides, the TGI in [7], in test [8] and in [9] was greater than 100 µM throughout.

Take `CN1CCN([C@H]2C[C@H]3[C@@H]4CC=C5C[C@@H](O)CC[C@]5(C)[C@H]4CC[C@]3(C)[C@H]2O)CC1`: the total growth inhibition concentration (TGI) was 39.7 µM in test [1]; greater than 100 µM in test [2]; greater than 100 µM in test [3]; greater than 63.2 µM in test [4]; greater than 86.6 µM in [5]; greater than 54.7 µM in test [6]. Also, the results for the TGI in test [7], in [8] and in test [9] were greater than 100 µM, greater than 56.5 µM and 50.6 µM, respectively.

Broadly, the GI50 is the concentration that inhibits growth by half. `COc1ccc(C2=NC(c3ccc(Cl)cc3)C(c3ccc(Cl)cc3)N2C(=O)N2CCNC(=O)C2)c(OC(C)C)c1` (configuration not stated): the GI50 is 3.47 µM in test [1]; 1.8 µM in [2]; 1.8 µM in test [3]; 2.06 µM in test [4]; 2.26 µM in test [5]; 1.76 µM in test [6]. Besides, the GI50 in test [7] is 2.08 µM; in [8], 2.02 µM; in [9], 3.58 µM. In addition, the TGI was greater than 10 µM in [1]; 3.22 µM in test [2]; 3.54 µM in [3]; 4.16 µM in test [4]; 4.79 µM in test [5]; 3.39 µM in [6]. Further, the results for the total growth inhibition concentration (TGI) in test [7], in [8] and in test [9] were 4.19 µM, 4.01 µM and greater than 10 µM, respectively.

Turning to `Cc1cc2ccc(N)nc2[nH]c1=O`, the TGI in test [2], in test [3], in test [4], in [5], in test [6] and in [7] was greater than 100 µM in each case. In addition, the TGI in test [8] and in test [9] was greater than 100 µM each time.

For `O=[N+]([O-])/C(C(Cl)=C(Cl)Cl)=C(/Nc1ccccc1)Sc1ccccc1`, the TGI stood at 41.6 µM in test [1]; 29.5 µM in test [2]; 41.4 µM in test [3]; 75.2 µM in test [4]; 34.9 µM in [5]; 36.7 µM in test [6]. The TGI in [7] was 40.1 µM; in test [8], 52.3 µM; in test [9], 66.1 µM.

For `CC(NC(=O)C(Cc1ccc(OC(=O)c2ccccc2)cc1)NC(=O)OC(C)(C)C)C(=O)NCC(=O)NC(Cc1ccccc1)C(=O)NN` (configuration not stated), the TGI in [1] was 76.4 µM; in test [2], greater than 100 µM; in [3] it was greater than 100 µM; in test [4], greater than 100 µM; in test [5], greater than 100 µM; in test [6], greater than 100 µM. Also, the TGI is greater than 100 µM in test [7], greater than 100 µM in test [8] and 38.1 µM in test [9].

With `CC/C(N)=N\NC(=O)OC(C)(C)C`, the concentration for total growth inhibition (TGI) in test [1], in test [2], in test [3], in [4], in [5] and in test [6] was greater than 100 µM in each case. Further, the total growth inhibition concentration (TGI) in test [7], in test [8] and in [9] was greater than 100 µM in each case.

Consider `Cc1ccc(NC(=O)CC(=O)n2nc(C)c(N=Nc3cccc(C)c3)c2C)cc1`, for which the concentration for total growth inhibition (TGI) in [2], in test [3], in [4], in test [5], in [6] and in test [7] was greater than 100 µM in each case. Also, the TGI in [8] and in [9] was greater than 100 µM each time.

`CC(C)(C)[Si](C)(C)OC[C@H](/C=C\CCCC(=O)O)NC1(c2ccccc2)c2ccccc2-c2ccccc21`: the TGI in test [1] was 45.5 µM; in test [2] it was 93.9 µM; in test [3] it was greater than 100 µM; in [4] it was 34.5 µM; in [5] it was 40.3 µM; in test [6] it was 23.3 µM. Further, the concentration for total growth inhibition (TGI) was 26 µM in test [7], 31.3 µM in test [8] and 23.3 µM in test [9].

For the compound `COc1ccc(CNc2nc3ccccc3nc2C(=O)O)cc1`, the concentration for total growth inhibition (TGI) in test [1], in test [2], in [3], in [4], in test [5] and in [6] was greater than 100 µM in each case. Also, the TGI in [7] was greater than 100 µM; in [8], greater than 100 µM; in [9], 68.2 µM.

With `CCOC(=O)/C=C/[C@@H](CC)O[Si](C(C)C)(C(C)C)C(C)C`, the TGI in test [1], in [2], in [3], in [4], in test [5] and in [6] was greater than 100 µM in each case. The values for the TGI in test [7], in [8] and in test [9] were greater than 100 µM, greater than 100 µM and 94.6 µM, respectively.

Consider `CCOC(=O)CCC(NC(=O)c1ccc(Nc2nc3ccccc3nc2C(=O)OCC)cc1)C(=O)OCC` (configuration not stated), for which the TGI is greater than 100 µM in [1]; 14.4 µM in [2]; greater than 35.8 µM in test [3]; greater than 79 µM in test [4]; greater than 100 µM in test [5]; greater than 100 µM in test [6]. The TGI was 12.2 µM in test [7], 5.62 µM in test [8] and greater than 100 µM in test [9].
